In patent US20240335429A1, “MOLECULAR GLUE AND SALL4 DEGRADER” (National University of Singapore, priority 2021, published 2024):

Assays:
[1] = system: SNU-398 cells; experiment: CellTiter-Glo viability assay, SNU-398; format: cell-based, human; details: CellTiter-Glo
Protocol: Cells were plated in RPMI culture media (40 μL) in 384-well white, flat-bottom plates (Corning) and incubated at 37° C. in a humidified atmosphere of 5% CO2 overnight. The numbers of cells per well were 1,500 for SNU-398 and SNU-182, 750 for SNU-387, SNU-449, SNU-475 and SNU-423, and 1,000 for H661 and H1299. After overnight incubation, 10 μL of drug (1% DMSO in RPMI) at designed concentrations were added to the cells. The cells were then incubated for 16, 24, 48, 72, or 96 h at 37° C. in a humidified atmosphere of 5% CO2 before CellTiter-Glo reagent (10 μL) was dispensed to the wells. The cells were incubated at room temperature for a minimum of 10 min. After that, luminescence readings were recorded by a Microplate Reader (PHERAstar or Tecan Infinite M200 Pro) according to the manufacturer's instruction for measuring the luminescence.

[2] = biological target: SALL4A-Nluc in H1299 cells (Homo sapiens, UniProt Q96SW2+Q9UJQ4); details: 10 μM, H1299 cells overexpressing SALL4A-nanoluc
Text: (§1) SALL4A or SALL4B was cloned into the dual-luciferase plasmid (pLL3.7-EF1a-IRES-Gateway-nluc-2xHA-IRES2-fluc-hCL1-P2A-Puro from Prof. William G. Kaelin group) to create a stable cell line (H1299, SALL4 negative) that ectopically express the SALL4A or B-NanoLuc fusion protein. SALL4A or B fused to nanoluciferase (Nluc) was expressed in a multicistronic mRNA with control firefly luciferase (Fluc). The measurement of Nluc/Fluc ratio enabled the determination of SALL4 fusion protein degradation relative to the internal Fluc control, independent of effects on transcription (FIG. 1A-B).

[3] = biological target: T1, SALL4B-Nluc in H1299 cells (Homo sapiens, UniProt Q96SW2+Q9UJQ4); experiment: Dual-luciferase SALL4B reporter cellular assay (main screen), Nluc/Fluc ratio; format: cell-based; details: NCI-H1299, read-out: maximum degradation (Dmax) of SALL4B_Nluc
T1 construct: expressed in transfected cells
Text: as §1
The assay was performed as described in Example 1 except in a 1,536-well plate which allows HTS of thermal shift hits from the primary screen, searching for SALL4 small molecule binders that can degrade the oncogenic SALL4B isoform. H1299 cells that stably express SALL4A/B_Nluc_Fluc were seeded in a 1,536-well clear bottom white plate (Corning) at 2,000 cells per well in RPMI medium (6 μL) and grown overnight (16 h) at 37° C., 5% CO2. Cells were treated with 8 μM of compounds for 6 h. Nano-Glo® Dual-Luciferase® Reporter Assay System and Pherastar plate reader were used for measuring the luciferase signal, following the manufacturer's instruction. For data analysis, the Nanoluc luminescence is normalized to firefly luciferase reading and then compared to the DMSO control. The screen was performed in triplicates.
The inventors treated H1299 cells overexpressing SALL4B_Nluc and the HCC (SNU-398, SNU-182) and NSCLC cells (H661) with increasing concentrations of QE-18-WG07 and IMiDs, and assayed the SALL4B_Nluc, as well as the endogenous SALL4A and B levels by immunoblots described in Example 4.

[4] = system: cleaved PARP; experiment: Immunoblot of cleaved PARP (apoptotic marker) in SNU-398 cells; format: cell-based, human; details: SNU-398 HCC cells, 24 h
Protocol: (§2) RIPA buffer containing freshly added protease inhibitors (2 mM PMSF) and protease inhibitor cocktail was used for cell lysis. The lysed cells were incubated for 10 min on ice and subsequently centrifuged at 4° C. for 10 min at 14,000 rpm. The protein concentrations of cell lysates were assessed using Bradford Assay as per manufacturer's instructions. The samples were denatured using 4× Sample buffer at 95° C. for 5 min. The samples were size resolved using polyacrylamide gel (8%) and Mini-PROTEAN Tetra Cell module. The size-resolved proteins were transferred onto PVDF via electroblotting using Mini Trans-Blot® module. The membrane was blocked using 5% BSA in TBST. The membrane was incubated with appropriate primary antibody (overnight) and secondary antibody (1 h). Immobilon Crescendo Western HRP substrate was used for signal development and images were acquired using darkroom development techniques.

[5] = biological target: T2, IKZF3 (Homo sapiens, UniProt Q9UKT9); experiment: Immunoblot of IKZF3 in SNU-398 HCC cells; format: cell-based; details: SNU-398 cells
T2 construct: with immunoblots in SNU-398 HCC cells; endogenous in cells; host or cells: SNU-398 HCC cells
Protocol: as §2

[6] = biological target: T3, IKZF1 (Homo sapiens, UniProt Q13422); experiment: Immunoblot of IKZF1 in SNU-398 HCC cells; format: cell-based; details: SNU-398 cells
T3 construct: with immunoblots in SNU-398 HCC cells; endogenous in cells; host or cells: SNU-398 HCC cells
Protocol: as §2

[7] = system: c-myc; experiment: Immunoblot of c-myc (SALL4 downstream target) in SNU-398 cells; format: cell-based, human; details: SNU-398 HCC cells, 24 h
Protocol: as §2

T1 sequence (Q9UJQ4 1-616 isoform Q9UJQ4-2): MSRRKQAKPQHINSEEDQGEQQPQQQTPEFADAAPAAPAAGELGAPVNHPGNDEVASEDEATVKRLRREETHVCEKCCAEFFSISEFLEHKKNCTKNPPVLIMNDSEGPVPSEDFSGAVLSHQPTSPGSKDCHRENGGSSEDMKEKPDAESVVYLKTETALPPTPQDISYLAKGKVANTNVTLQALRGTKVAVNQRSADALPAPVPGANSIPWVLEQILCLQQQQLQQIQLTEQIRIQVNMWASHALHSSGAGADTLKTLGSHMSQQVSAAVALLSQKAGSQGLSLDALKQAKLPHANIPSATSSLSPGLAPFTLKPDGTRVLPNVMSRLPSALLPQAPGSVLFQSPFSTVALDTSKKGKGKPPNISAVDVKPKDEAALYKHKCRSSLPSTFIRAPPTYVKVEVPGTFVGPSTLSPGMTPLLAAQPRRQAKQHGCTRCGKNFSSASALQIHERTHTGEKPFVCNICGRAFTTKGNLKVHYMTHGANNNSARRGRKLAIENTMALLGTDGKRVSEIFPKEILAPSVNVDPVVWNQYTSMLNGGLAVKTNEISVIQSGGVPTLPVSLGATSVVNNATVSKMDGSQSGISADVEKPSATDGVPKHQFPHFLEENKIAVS
T1 sequence (Q96SW2 whole entry): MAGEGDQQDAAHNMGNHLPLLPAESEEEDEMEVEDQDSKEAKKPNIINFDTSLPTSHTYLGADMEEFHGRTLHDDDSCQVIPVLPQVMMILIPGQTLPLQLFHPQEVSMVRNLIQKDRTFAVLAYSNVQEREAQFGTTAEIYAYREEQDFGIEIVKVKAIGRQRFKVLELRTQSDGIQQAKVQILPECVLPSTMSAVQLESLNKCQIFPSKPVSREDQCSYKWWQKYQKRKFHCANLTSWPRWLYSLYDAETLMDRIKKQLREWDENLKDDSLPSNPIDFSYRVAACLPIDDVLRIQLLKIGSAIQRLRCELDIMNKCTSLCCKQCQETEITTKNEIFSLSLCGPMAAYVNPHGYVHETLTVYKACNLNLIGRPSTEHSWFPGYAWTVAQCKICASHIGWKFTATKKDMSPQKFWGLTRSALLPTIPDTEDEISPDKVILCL
T1 sequence (Q16531 whole entry partner): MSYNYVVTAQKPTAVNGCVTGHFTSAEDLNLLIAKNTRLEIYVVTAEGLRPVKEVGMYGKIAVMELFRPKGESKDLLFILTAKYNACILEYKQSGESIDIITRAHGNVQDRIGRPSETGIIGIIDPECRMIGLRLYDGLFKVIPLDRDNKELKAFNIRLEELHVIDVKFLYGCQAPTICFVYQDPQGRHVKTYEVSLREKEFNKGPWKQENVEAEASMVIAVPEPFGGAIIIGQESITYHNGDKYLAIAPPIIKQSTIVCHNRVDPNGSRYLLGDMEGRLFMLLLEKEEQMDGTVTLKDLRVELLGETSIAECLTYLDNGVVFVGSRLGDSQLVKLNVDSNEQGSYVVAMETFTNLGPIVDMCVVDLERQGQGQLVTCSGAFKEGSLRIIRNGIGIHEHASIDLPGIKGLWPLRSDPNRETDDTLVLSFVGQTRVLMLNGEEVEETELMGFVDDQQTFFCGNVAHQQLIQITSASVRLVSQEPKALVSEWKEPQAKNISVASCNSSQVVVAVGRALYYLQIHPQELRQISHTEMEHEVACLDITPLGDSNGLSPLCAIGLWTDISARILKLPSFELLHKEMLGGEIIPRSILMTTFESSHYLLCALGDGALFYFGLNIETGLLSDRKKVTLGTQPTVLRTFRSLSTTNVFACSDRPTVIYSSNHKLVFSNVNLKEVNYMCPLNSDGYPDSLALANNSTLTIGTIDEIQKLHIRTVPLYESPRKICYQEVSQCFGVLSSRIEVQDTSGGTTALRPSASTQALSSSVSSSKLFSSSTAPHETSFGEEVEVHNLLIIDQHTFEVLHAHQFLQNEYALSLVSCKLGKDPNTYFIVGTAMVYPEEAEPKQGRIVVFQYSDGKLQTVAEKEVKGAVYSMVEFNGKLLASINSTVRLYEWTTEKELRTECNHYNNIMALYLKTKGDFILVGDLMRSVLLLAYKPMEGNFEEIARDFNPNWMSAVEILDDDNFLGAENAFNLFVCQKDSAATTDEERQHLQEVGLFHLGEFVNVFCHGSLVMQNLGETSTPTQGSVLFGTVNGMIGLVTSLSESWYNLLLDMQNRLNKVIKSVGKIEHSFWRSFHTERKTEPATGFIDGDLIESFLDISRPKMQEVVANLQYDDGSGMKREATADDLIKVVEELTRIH
T2 sequence (Q9UKT9 whole entry): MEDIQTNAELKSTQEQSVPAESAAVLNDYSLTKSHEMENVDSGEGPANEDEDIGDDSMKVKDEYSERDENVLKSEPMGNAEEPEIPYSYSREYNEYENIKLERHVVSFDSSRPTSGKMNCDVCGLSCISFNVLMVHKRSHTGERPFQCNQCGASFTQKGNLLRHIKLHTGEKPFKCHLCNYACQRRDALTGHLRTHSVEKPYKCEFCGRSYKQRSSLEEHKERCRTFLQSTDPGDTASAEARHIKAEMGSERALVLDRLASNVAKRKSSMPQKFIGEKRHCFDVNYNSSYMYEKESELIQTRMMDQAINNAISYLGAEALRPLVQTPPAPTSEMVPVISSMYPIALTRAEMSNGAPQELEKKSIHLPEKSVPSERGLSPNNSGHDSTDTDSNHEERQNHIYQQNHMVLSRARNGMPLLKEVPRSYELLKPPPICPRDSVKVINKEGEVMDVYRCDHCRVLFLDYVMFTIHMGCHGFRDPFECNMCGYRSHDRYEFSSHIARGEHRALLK
Sequence of SALL4A-Nluc in H1299 cells (Q96SW2 whole entry, the tested form may be a part): as the sequence (Q96SW2 whole entry) above
Sequence of SALL4A-Nluc in H1299 cells (Q16531 whole entry, further chain, the tested form may be a part): as the sequence (Q16531 whole entry partner) above
Sequence of SALL4A-Nluc in H1299 cells (Q9UJQ4 whole entry, the tested form may be a part): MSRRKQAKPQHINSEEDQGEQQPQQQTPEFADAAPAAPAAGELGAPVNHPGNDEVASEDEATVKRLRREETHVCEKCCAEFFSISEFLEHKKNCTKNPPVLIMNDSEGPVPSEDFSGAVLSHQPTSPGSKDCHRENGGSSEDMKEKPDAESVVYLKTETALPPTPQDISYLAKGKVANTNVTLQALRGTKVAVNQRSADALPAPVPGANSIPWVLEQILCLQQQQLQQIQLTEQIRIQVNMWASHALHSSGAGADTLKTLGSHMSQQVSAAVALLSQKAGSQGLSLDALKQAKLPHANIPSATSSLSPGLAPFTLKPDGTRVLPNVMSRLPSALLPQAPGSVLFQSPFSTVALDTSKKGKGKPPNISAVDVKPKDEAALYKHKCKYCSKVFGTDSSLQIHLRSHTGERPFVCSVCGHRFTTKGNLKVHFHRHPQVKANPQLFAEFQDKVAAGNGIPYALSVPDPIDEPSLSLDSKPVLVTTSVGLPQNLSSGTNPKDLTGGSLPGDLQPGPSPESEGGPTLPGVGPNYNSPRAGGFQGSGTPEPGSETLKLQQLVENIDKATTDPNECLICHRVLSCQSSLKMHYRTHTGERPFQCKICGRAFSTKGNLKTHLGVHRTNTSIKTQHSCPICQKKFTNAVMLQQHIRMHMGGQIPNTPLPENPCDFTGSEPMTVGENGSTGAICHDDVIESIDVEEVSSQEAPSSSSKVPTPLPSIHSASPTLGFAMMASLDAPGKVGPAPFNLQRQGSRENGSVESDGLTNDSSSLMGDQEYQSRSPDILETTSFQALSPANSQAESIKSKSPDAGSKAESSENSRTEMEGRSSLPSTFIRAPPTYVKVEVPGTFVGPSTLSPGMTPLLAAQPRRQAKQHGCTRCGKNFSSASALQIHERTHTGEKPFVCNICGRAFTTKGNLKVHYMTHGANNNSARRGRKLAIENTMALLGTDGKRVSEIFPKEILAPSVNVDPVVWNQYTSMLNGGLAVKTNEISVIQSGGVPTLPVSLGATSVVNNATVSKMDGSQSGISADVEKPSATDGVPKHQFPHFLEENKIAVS
T3 sequence (Q13422 whole entry): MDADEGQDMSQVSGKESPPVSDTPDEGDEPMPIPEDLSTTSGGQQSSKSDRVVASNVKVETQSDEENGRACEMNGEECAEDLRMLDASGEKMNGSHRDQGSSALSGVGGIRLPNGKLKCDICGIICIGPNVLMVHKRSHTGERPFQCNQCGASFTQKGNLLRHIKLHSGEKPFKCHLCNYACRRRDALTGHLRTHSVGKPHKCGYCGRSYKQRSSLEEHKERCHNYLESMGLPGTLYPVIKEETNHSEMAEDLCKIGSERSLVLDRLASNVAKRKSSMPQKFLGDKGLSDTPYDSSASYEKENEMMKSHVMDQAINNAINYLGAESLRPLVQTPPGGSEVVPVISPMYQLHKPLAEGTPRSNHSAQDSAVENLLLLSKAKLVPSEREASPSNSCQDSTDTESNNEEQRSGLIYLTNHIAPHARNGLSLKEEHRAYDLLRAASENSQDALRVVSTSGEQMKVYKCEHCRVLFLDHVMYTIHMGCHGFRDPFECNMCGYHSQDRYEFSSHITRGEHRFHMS

| Structure (SMILES) | effect on SNU-398 cell growth [1] | time at which inhibition of SALL4A-Nluc signal became saturated [2] [h] | Dmax [3] [%] | cleavage of PARP (apoptosis induction) [4] | Dmax [5] [%] | Dmax [6] [%] | effect on the level of c-myc [7] |
| --- | --- | --- | --- | --- | --- | --- | --- |
| Nc1cccc2c1C(=O)N(C1CCC(=O)NC1=O)C2=O (stereo not drawn) [Pomalidomide, reference compound] | did not result in any antiproliferative consequences | 8 | 17 | – | – | – | – |
| O=C1CCC(N2C(=O)c3ccccc3C2=O)C(=O)N1 (stereo not drawn) [Thalidomide, reference compound] | did not result in any antiproliferative consequences | – | 17 | no cleavage of PARP observed | 39 | 64 | did not affect |
